This assay concerns the target T1, human M2 receptor (Homo sapiens, UniProt P08172).
T1 sequence (P08172 1-466): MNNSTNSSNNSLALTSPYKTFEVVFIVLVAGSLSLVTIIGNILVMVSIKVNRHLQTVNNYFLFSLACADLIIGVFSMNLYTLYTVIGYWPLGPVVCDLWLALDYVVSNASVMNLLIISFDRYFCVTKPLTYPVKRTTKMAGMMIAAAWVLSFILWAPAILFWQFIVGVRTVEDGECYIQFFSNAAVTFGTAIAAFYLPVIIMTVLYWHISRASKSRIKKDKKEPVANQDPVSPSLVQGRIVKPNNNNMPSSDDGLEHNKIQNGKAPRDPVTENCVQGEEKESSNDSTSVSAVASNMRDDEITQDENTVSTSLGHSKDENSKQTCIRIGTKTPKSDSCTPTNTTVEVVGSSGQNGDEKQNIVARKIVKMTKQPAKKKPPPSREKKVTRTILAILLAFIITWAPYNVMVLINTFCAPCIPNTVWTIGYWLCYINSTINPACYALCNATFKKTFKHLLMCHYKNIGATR
The settings on record: M2-GIRK1/4 reporter cells; for EC50: Receptor activity EC50, allosteric potency at EC20 acetylcholine, in some cases mean of two or more determinations; for Emax: read-out: Efficiency, boosting of the acetylcholine effect at EC20 acetylcholine concentration.

Molecules are shown by their SMILES.

In the case of `CC(C)C[C@H](NC(=O)c1cn(-c2c(F)cc(F)cc2F)c2nc(N3C[C@@H](O)CC3=O)ccc2c1=O)C(F)(F)F` [Example 525, 7-[(4S)-4-Hydroxy-2-oxopyrrolidin-1-yl]-oxo-N-[(2S)-1,1,1-trifluoro-4-methylpentan-2-yl]-1-(2,4,6-trifluorophenyl)-1,4-dihydro-1,8-naphthyridine-3-carboxamide], the EC50 (commonly the concentration needed to bring the measured effect to its halfway point) came to 5 nM and the Emax was found to be 100%.

Turning to `CC(C)C[C@@H](NC(=O)c1cn(-c2c(F)cc(F)cc2F)c2nc(N3C[C@@H](O)[C@H](O)C3)ccc2c1=O)C(F)(F)F` [Example 544, 7-[(3R,4R)-3,4-Dihydroxypyrrolidin-1-yl]-4-oxo-N-[(2R)-1,1,1-trifluoro-4-methylpentan-2-yl]-1-(2,4,6-trifluorophenyl)-1,4-dihydro-1,8-naphthyridine-3-carboxamide], it took 8 nM to reach a half-maximal effect (EC50) and the Emax is 98%.

In the case of `O=C(NC(CC(F)(F)F)C(F)(F)F)c1cn(-c2c(F)cc(F)cc2F)c2nc(N3C[C@@H](O)[C@H](O)C3)ccc2c1=O` (stereo partly drawn) [Example 545, 7-[(3R,4R)-3,4-Dihydroxypyrrolidin-1-yl]-N-[1,1,1,4,4,4-hexafluorobutan-2-yl]-4-oxo-1-(2,4,6-trifluorophenyl)-1,4-dihydro-1,8-naphthyridine-3-carboxamide], it took 8 nM to reach a half-maximal effect (EC50) and the Emax stood at 99%.

With `O=C(N[C@@H](C1CC1)C(F)(F)F)c1cn(-c2c(F)cc(F)cc2Cl)c2nc(N3C[C@@H](O)[C@H](O)C3)ccc2c1=O` [Example 546, 1-(2-Chloro-4,6-difluorophenyl)-N-[(1 S)-1-cyclopropyl-2,2,2-trifluoroethyl]-7-[(3R,4R)-3,4-dihydroxypyrrolidin-1-yl]-4-oxo-1,4-dihydro-1,8-naphthyridine-3-carboxamide], the EC50 was 10 nM and the Emax was 100%.

For the molecule `O=C(NC(C(F)(F)F)C(F)(F)F)c1cn(-c2c(F)cc(F)cc2F)c2nc(N3C[C@@H](O)CC3=O)ccc2c1=O` [Example 555, N-(1,1,1,3,3,3-Hexafluoropropan-2-yl)-7-[(4S)-4-hydroxy-2-oxopyrrolidin-1-yl]-4-oxo-1-(2,4,6-trifluorophenyl)-1,4-dihydro-1,8-naphthyridine-3-carboxamide], the midpoint of the response, the EC50, lay at 10 nM and the Emax turned out to be 100%.

In the case of `CC(C)C[C@H](NC(=O)c1cn(-c2c(F)cc(F)cc2F)c2nc(N3C[C@@H](O)[C@H](O)C3)ccc2c1=O)C(F)(F)F` [Example 559, 7-[(3R,4R)-3,4-Dihydroxypyrrolidin-1-yl]-4-oxo-N-[(2S)-1,1,1-trifluoro-4-methylpentan-2-yl]-1-(2,4,6-trifluorophenyl)-1,4-dihydro-1,8-naphthyridine-3-carboxamide], the EC50 was 10 nM and the Emax is 99%.

As for `CC[C@H](NC(=O)c1cn(-c2c(F)cc(F)cc2Cl)c2nc(N3C[C@@H](O)[C@H](O)C3)ccc2c1=O)C(F)(F)F` [Example 566, 1-(2-Chloro-4,6-difluorophenyl)-7-[(3R,4R)-3,4-dihydroxypyrrolidin-1-yl]-4-oxo-N-[(2S)-1,1,1-trifluorobutan-2-yl]-1,4-dihydro-1,8-naphthyridine-3-carboxamide], the EC50 amounted to 16 nM and the Emax turned out to be 96.5%.

In the case of `O=C(NC(C(F)(F)F)C(F)(F)F)c1cn(-c2c(F)cc(F)cc2F)c2nc(N3C[C@@H](O)[C@H](O)C3)ccc2c1=O` [Example 572, 7-[(3R,4R)-3,4-Dihydroxypyrrolidin-1-yl]-N-(1,1,1,3,3,3-hexafluoropropan-2-yl)-4-oxo-1-(2,4,6-trifluorophenyl)-1,4-dihydro-1,8-naphthyridine-3-carboxamide], the EC50 came out at 12 nM and the Emax was determined as 100%.

For `COC(=O)N1CCN(c2ccc3c(=O)c(C(=O)NC(C)(C)CC(F)(F)F)cn(-c4c(F)cc(F)cc4F)c3n2)CC1` [Example 575, Methyl 4-{5-oxo-6-[(4,4,4-trifluoro-2-methylbutan-2-yl)carbamoyl]-8-(2,4,6-trifluorophenyl)-5,8-dihydro-1,8-naphthyridin-2-yl}piperazine-1-carboxylate], the EC50 turned out to be 13 nM and the Emax stood at 96%.

For `CC1C(=O)N(c2ccc3c(=O)c(C(=O)N[C@@H](C4CC4)C(F)(F)F)cn(-c4c(F)cc(F)cc4F)c3n2)CC1O` (stereo partly shown) [Example 579, N-[(1 S)-1-Cyclopropyl-2,2,2-trifluoroethyl]-7-[4-hydroxy-3-methyl-2-oxopyrrolidin-1-yl]-4-oxo-1-(2,4,6-trifluorophenyl)-1,4-dihydro-1,8-naphthyridine-3-carboxamide], the EC50 came out at 14 nM and the Emax was determined as 97.5%.

Consider `CC(C)C[C@@H](NC(=O)c1cn(-c2c(F)cc(F)cc2F)c2nc(N3CCNC3=O)ccc2c1=O)C(F)(F)F` [Example 580, 4-Oxo-7-(2-oxoimidazolidin-1-yl)-N-[(2R)-1,1,1-trifluoro-4-methylpentan-2-yl)-1-(2,4,6-trifluorophenyl)-1,4-dihydro-1,8-naphthyridine-3-carboxamide], for which the EC50 is 14 nM and the Emax was 100%.

On to `CC(NC(=O)c1cn(-c2c(F)cc(F)cc2F)c2nc(N3CCNC3=O)ccc2c1=O)(C(F)(F)F)C(F)(F)F` [Example 581, N-(1,1,1,3,3,3-Hexafluoro-2-methylpropan-2-yl)-4-oxo-7-(2-oxoimidazolidin-1-yl)-1-(2,4,6-trifluorophenyl)-1,4-dihydro-1,8-naphthyridine-3-carboxamide], for which the EC50 was determined as 14 nM and the Emax was 98%.

On to `O=C(Nc1c(Cl)cccc1Cl)c1cn(-c2c(F)cc(F)cc2F)c2nc(N3C[C@@H](O)[C@H](O)C3)ccc2c1=O` [Example 585, N-(2,6-Dichlorophenyl)-7-[(3R,4R)-3,4-dihydroxypyrrolidin-1-yl]-4-oxo-1-(2,4,6-trifluorophenyl)-1,4-dihydro-1,8-naphthyridine-3-carboxamide], for which the EC50 was found to be 14 nM and the Emax is 95.5%.

Take `CC(NC(=O)c1cn(-c2c(F)cc(F)cc2F)c2nc(N3C[C@@H](O)[C@H](O)C3)ccc2c1=O)(C(F)(F)F)C(F)(F)F` [Example 591, 7-[(3R,4R)-3,4-Dihydroxypyrrolidin-1-yl]-N-(1,1,3,3,3-hexafluoro-2-methylpropan-2-yl)-4-oxo-1-(2,4,6-trifluorophenyl)-1,4-dihydro-1,8-naphthyridine-3-carboxamide]: the EC50 came to 16 nM and the Emax amounted to 100%.

Consider `O=C(Nc1c(Cl)cccc1Cl)c1cn(-c2c(F)cc(F)cc2F)c2nc(N3C[C@@H](O)CC3=O)ccc2c1=O` [Example 592, N-(2,6-Dichlorophenyl)-7-[(4S)-4-hydroxy-2-oxopyrrolidin-1-yl]-4-oxo-1-(2,4,6-trifluorophenyl)-1,4-dihydro-1,8-naphthyridine-3-carboxamide], for which the EC50 was 16 nM and the Emax came out at 99.5%.

As for `COC(=O)N1CCN(c2ccc3c(=O)c(C(=O)N[C@H](C4CC4)C(F)(F)F)cn(-c4c(F)cc(F)cc4F)c3n2)CC1` [Example 594, Methyl 4-[6-{[(1R)-1-cyclopropyl-2,2,2-trifluoroethyl]carbamoyl}-5-oxo-8-(2,4,6-trifluorophenyl)-5,8-dihydro-1,8-naphthyridin-2-yl]piperazine-1-carboxylate], the midpoint of the response, the EC50, lay at 18 nM and the Emax was 100%.

For the molecule `COC1(C)CN(c2ccc3c(=O)c(C(=O)N[C@@H](C(C)(C)C)C(F)(F)F)cn(-c4c(F)cc(F)cc4F)c3n2)C1` [Example 598, 7-(3-Methoxy-3-methylazetidin-1-yl)-4-oxo-N-[(2S)-1,1,1-trifluoro-3,3-dimethylbutan-2-yl]-1-(2,4,6-trifluorophenyl)-1,4-dihydro-1,8-naphthyridine-3-carboxamide], the EC50 was 21 nM and the Emax was determined as 100%.

Regarding `O=C(NC(C(F)(F)F)C(F)(F)F)c1cn(-c2c(F)cc(F)cc2F)c2nc(N3CCNC3=O)ccc2c1=O` [Example 599, N-(1,1,1,3,3,3-Hexafluoropropan-2-yl)-4-oxo-7-(2-oxoimidazolidin-1-yl)-1-(2,4,6-trifluorophenyl)-1,4-dihydro-1,8-naphthyridine-3-carboxamide], the EC50 came out at 23 nM and the Emax turned out to be 90%.

Take `COC(=O)N1CCN(c2ccc3c(=O)c(C(=O)N[C@@H](C4CC4)C(F)(F)F)cn(-c4c(F)cc(F)cc4F)c3n2)CC1` [Example 603, Methyl 4-[6-{[(1 S)-1-cyclopropyl-2,2,2-trifluoroethyl]carbamoyl}-5-oxo-8-(2,4,6-trifluorophenyl)-5,8-dihydro-1,8-naphthyridin-2-yl]piperazine-1-carboxylate]: a half-maximal response (EC50) required 25 nM and the Emax came out at 89.5%.

Regarding `O=C(N[C@@H](C1CC1)C(F)(F)F)c1cn(-c2c(F)cc(F)cc2F)c2nc(N3CCCNC3=O)ccc2c1=O` [Example 604, N-[(1S)-1-Cyclopropyl-2,2,2-trifluoroethyl]-4-oxo-7-(2-oxotetrahydropyrimidin-1(2H)-yl)-1-(2,4,6-trifluorophenyl)-1,4-dihydro-1,8-naphthyridine-3-carboxamide], a half-maximal response (EC50) required 25 nM and the Emax came out at 93.5%.

Values taken from patent US20190367516A1 (Bayer Pharma Aktiengesellschaft, priority 2015, published 2019).
